Measured values taken from ChEMBL document CHEMBL6071184, “Lasamide, a Potent Human Carbonic Anhydrase Inhibitor from the Market: Inhibition Profiling and Crystallographic Studies” (ACS Med Chem Lett, 2024).

Columns and labels:
Carbonic anhydrase 6 [1] = molecular target: T1, Carbonic anhydrase 6 (Homo sapiens, UniProt P23280)
Description: Inhibition of full-length recombinant human milk CA VI-catalysed CO2 hydration by stopped-flow technique

Carbonic anhydrase 13 = Carbonic anhydrase 13 (Mus musculus, UniProt Q9D6N1); experiment: Inhibition of mouse CA XIII-catalysed CO2 hydration by stopped-flow technique
[2] = molecular target: Carbonic anhydrase 5B, mitochondrial (Homo sapiens, UniProt Q9Y2D0); experiment: Inhibition of full-length recombinant human CA VB-catalysed CO2 hydration by stopped-flow technique
Chain of Carbonic anhydrase 5B, mitochondrial (Q9Y2D0 whole entry): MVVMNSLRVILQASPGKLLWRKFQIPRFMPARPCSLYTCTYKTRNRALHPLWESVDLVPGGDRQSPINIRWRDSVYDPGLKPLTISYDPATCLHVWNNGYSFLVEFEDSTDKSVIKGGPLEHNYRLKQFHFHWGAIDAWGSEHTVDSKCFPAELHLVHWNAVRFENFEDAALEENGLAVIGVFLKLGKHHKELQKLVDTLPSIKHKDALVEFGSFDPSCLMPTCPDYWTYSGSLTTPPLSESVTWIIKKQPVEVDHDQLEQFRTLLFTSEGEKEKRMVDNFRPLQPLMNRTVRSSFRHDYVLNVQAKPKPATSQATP

[3] = molecular target: Carbonic anhydrase 5A, mitochondrial (Homo sapiens, UniProt P35218)
Chain of Carbonic anhydrase 5A, mitochondrial (P35218 whole entry): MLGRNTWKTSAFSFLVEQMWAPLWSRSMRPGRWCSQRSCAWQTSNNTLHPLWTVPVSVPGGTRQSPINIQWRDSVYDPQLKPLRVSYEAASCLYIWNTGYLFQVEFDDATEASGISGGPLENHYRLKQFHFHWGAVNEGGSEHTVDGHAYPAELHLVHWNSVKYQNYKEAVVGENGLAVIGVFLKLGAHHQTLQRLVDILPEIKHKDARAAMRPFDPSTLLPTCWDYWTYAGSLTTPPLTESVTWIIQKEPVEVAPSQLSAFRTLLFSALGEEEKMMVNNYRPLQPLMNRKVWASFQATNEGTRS
Description: Inhibition of full-length recombinant human CA VA-catalysed CO2 hydration by stopped-flow technique

Carbonic anhydrase 7 = Carbonic anhydrase 7 (Homo sapiens, UniProt P43166)
Chain of Carbonic anhydrase 7 (P43166 whole entry): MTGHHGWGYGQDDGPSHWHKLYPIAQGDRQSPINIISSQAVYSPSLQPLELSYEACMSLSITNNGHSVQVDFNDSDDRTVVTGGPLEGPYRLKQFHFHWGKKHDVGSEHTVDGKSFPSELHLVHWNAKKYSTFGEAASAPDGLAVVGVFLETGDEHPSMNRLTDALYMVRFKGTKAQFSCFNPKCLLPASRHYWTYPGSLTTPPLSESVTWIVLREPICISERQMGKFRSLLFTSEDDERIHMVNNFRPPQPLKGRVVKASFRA
Description: Inhibition of full-length recombinant human CA VII-catalysed CO2 hydration by stopped-flow technique

Carbonic anhydrase 4 = Carbonic anhydrase 4 (Homo sapiens, UniProt P22748); experiment: Inhibition of full-length recombinant human CA IV-catalysed CO2 hydration by stopped-flow technique
Chain of Carbonic anhydrase 4 (P22748 whole entry): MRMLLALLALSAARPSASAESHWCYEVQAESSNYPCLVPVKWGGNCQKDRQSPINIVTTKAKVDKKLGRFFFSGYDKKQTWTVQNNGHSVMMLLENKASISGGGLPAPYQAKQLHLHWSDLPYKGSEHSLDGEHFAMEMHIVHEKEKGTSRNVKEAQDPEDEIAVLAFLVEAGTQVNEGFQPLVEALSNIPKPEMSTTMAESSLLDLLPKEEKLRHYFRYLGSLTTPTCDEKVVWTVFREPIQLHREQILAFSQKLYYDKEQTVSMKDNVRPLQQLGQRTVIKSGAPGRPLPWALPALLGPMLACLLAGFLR

Carbonic anhydrase 3 = Carbonic anhydrase 3 (Homo sapiens, UniProt P07451)
Chain of Carbonic anhydrase 3 (P07451 whole entry): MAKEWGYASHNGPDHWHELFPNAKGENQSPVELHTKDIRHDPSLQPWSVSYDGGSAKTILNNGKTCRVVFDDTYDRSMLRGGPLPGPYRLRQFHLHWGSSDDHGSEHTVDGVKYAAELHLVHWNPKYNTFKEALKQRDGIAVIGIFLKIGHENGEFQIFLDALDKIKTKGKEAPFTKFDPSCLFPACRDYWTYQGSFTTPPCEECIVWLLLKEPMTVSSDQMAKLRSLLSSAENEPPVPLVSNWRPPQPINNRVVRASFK
Description: Inhibition of full-length recombinant human CA III-catalysed CO2 hydration by stopped-flow technique

Carbonic anhydrase 6 [4] = molecular target: T1, Carbonic anhydrase 6; remark: listed apart in the source
Description: Inhibition of full-length recombinant human saliva CA VI-catalysed CO2 hydration by stopped-flow technique

Carbonic anhydrase 14 = Carbonic anhydrase 14 (Homo sapiens, UniProt Q9ULX7); experiment: Inhibition of full-length recombinant human CA XIV-catalysed CO2 hydration by stopped-flow technique
Chain of Carbonic anhydrase 14 (Q9ULX7 whole entry): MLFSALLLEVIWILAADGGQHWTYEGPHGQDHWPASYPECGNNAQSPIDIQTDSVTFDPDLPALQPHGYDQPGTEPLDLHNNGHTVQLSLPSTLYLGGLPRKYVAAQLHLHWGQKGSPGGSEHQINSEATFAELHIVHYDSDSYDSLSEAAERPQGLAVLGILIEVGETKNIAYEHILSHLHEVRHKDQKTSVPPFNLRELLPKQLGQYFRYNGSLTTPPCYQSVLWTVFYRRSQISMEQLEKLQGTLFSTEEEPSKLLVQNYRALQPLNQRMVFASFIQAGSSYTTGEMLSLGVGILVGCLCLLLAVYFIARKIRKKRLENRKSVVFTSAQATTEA

T1 sequence (P23280 whole entry): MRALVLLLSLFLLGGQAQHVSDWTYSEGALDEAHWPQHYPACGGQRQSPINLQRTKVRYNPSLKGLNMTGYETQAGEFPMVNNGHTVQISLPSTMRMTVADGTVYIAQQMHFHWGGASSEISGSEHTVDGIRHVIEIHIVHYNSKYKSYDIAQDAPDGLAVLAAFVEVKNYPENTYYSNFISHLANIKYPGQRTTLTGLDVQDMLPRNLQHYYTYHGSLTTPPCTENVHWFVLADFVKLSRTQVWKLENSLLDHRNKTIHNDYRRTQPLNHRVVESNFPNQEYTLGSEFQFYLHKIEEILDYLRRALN
Chain of Carbonic anhydrase 13 (Q9D6N1 whole entry): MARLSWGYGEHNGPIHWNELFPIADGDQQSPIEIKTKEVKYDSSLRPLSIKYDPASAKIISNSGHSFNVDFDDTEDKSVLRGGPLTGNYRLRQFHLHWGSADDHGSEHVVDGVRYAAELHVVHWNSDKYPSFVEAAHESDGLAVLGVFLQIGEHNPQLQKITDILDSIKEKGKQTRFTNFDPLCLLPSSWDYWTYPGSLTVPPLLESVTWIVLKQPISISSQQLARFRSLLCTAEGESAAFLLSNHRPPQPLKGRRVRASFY

NS(=O)(=O)c1cc(C(=O)O)c(Cl)cc1Cl
Ki (Carbonic anhydrase 6 [1]): 8.51 nM | Ki (Carbonic anhydrase 13): 9.37 nM | Ki [2]: 14.2 nM | Ki [3]: 3.49 nM | Ki (Carbonic anhydrase 7): 6.63 nM | Ki (Carbonic anhydrase 4): 1.91 nM | Ki (Carbonic anhydrase 3): > 50000 nM | Ki (Carbonic anhydrase 6 [4]): 11.7 nM | Ki (Carbonic anhydrase 14): 11.9 nM
